Laboratory results published in patent publication US8778928B2 (priority 2009, dated 2014).
Where a name gives a salt, the structure may show the parent alone.

Target: α7-subtype of nicotinic receptors (Rattus norvegicus, UniProt Q05941)
Test: biochemical
Type: binding

Sequence of α7-subtype of nicotinic receptors (Q05941 23-502): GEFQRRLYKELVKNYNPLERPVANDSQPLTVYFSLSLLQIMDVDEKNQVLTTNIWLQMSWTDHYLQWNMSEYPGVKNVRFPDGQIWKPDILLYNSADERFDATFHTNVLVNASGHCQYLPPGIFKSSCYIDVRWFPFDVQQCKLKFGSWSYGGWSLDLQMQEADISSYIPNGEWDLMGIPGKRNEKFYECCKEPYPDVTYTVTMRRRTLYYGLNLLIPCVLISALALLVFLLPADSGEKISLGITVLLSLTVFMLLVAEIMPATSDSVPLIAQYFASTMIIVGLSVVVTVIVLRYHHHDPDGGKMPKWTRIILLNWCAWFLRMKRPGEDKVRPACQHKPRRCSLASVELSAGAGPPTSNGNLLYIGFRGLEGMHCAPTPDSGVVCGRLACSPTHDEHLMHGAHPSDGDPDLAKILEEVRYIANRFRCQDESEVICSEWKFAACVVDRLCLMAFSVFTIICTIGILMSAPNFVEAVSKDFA

| Structure (SMILES) | IC50 |
| --- | --- |
| Cn1ccc2ccc(-c3nnc(N4CCN5CCC4CC5)o3)cc21 [Compound A1, 4-[5-(1-Methyl-1H-indol-6-yl)-[1,3,4]oxadiazol-2-yl]-1,4-diaza-bicyclo[3.2.2]nonane fumaric acid salt] | 11 nM |
| CC(C)n1ccc2ccc(-c3nnc(N4CCN5CCC4CC5)o3)cc21 [Compound A4, 2-(1,4-diazabicyclo[3.2.2]nonan-4-yl)-5-(1-isopropylindol-6-yl)-1,3,4-oxadiazole free base] | 39 nM |
| c1cc2ccc(-c3nnc(N4CCN5CCC4CC5)o3)cc2[nH]1 [Compound A3, 2-(1,4-diazabicyclo[3.2.2]nonan-4-yl)-5-(1H-indol-6-yl)-1,3,4-oxadiazole free base] | 16 nM |
| FCCn1ccc2ccc(-c3nnc(N4CCN5CCC4CC5)o3)cc21 [Compound A2, 4-{5-[1-(2-Fluoro-ethyl)-1H-indol-6-yl]-[1,3,4]oxadiazol-2-yl}-1,4-diaza-bicyclo[3.2.2]nonane fumaric acid salt] | 4.2 nM |
| CCn1ccc2ccc(-c3nnc(N4CCN5CCC4CC5)o3)cc21 [Compound A5, 2-(1,4-diazabicyclo[3.2.2]nonan-4-yl)-5-(1-ethylindol-6-yl)-1,3,4-oxadiazole fumaric acid salt] | 3 nM |
